Biological target: SIK2 (Homo sapiens (Human), UniProt Q9H0K1)
Test: SIK2 Enzymatic Assay Version 2 (High ATP)
Assay type: biochemical
Conditions: 3 mM ATP and 200 μM HDAC5tide final, ADP-Glo Max luminescence
Description: All steps were performed at room temperature. Compounds were pre-plated onto an assay plate using an Echo acoustic dispenser (Labcyte, […] or […]) at 80 nL per well. Enzyme prepared in assay buffer at 6 nM (2× final concentration) was added at 4 μL per well using the Multidrop Combi (Thermo Fisher-used for all additions in this assay) to the assay plate, spun for 1 min at 1000 rpm (Allegra 6KR Beckman Coulter centrifuge), and incubated with compound for 30 minutes. […] ADP-Glo Max Reagent (prepared and aliquoted as per manufacturer instructions) was then added at 8 μL per well, spun and incubated for 2 hours. ADP-Glo Max Detection (prepared and aliquoted as per manufacturer instructions) was added at 8 μL per well to the assay plate, which was spun and incubated for 1 hour. The plate was then read on the Pherastar (BMG Labtech) using a luminescence read. Gain was set between 2200-2500.

Chain of SIK2 (Q9H0K1 whole entry, species assumed): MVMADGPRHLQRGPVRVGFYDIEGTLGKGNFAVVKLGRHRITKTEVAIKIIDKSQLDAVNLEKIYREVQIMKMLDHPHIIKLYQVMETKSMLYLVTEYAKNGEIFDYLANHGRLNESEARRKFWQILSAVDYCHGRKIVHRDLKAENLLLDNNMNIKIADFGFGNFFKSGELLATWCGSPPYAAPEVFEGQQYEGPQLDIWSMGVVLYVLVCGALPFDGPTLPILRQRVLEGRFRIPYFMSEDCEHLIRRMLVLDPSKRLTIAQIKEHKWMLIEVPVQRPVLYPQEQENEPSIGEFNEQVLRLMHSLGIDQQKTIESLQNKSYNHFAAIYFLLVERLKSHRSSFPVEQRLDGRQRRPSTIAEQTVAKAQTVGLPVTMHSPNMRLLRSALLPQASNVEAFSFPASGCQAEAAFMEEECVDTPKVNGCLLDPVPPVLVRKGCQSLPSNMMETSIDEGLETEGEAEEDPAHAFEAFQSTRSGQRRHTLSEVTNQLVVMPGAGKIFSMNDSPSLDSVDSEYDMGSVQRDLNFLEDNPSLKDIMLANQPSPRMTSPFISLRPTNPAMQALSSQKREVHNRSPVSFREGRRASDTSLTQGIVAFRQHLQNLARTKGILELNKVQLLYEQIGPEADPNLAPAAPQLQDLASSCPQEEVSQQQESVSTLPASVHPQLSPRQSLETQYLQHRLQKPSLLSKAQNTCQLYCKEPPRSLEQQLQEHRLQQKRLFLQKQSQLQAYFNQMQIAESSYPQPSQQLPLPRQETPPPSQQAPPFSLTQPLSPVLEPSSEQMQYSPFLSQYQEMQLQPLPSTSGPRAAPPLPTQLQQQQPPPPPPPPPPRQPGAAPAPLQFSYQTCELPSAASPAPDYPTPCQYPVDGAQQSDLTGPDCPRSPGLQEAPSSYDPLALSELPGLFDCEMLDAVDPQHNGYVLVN

Compound | IC50
Cc1cc(Nc2cc3cc(-c4c(OC[C@@H]5CC(=O)N(C)C5)cnn4C)ccn3n2)nc(C)n1 (single isomer, unassigned) [Example 35, *R-4-[[5-[2-[(2,6-dimethylpyrimidin-4-yl)amino]pyrazolo[1,5-a]pyridin-5-yl]-1-methyl-pyrazol-4-yl]oxymethyl]-1-methyl-pyrrolidin-2-one] | 19.2 nM
CN1CC2(CCOCC2)[C@H]1COc1cnn(C)c1-c1ccn2nc(NC(=O)C3CC3)cc2c1 (single isomer, unassigned) [Example 59, (*S)—N-[5-[2-methyl-4-[(2-methyl-7-oxa-2-azaspiro[3.5]nonan-3-yl)methoxy]pyrazol-3-yl]pyrazolo[1,5-a]pyridin-2-yl]cyclopropanecarboxamide] | 690 nM
CCN1CC2(CC2)[C@H]1COc1cnn(C)c1-c1ccn2nc(NC(=O)C3CC3)cc2c1 (single isomer, unassigned) [Example 67, (*S)—N-[5-[4-[(5-ethyl-5-azaspiro[2.3]hexan-6-yl)methoxy]-2-methyl-pyrazol-3-yl]pyrazolo[1,5-a]pyridin-2-yl]cyclopropanecarboxamide] | 52.1 nM
CN1CC[C@@H]1COc1cnn(C)c1-c1ccn2nc(NC(=O)[C@H]3C[C@@H]3c3ccccc3)cc2c1 (single isomer, unassigned) [Example 156, (1*S, 2*S)—N-[5-[2-methyl-4-[((R)-1-methylazetidin-2-yl)methoxy]pyrazol-3-yl]pyrazolo[1,5-a]pyridin-2-yl]-2-phenyl-cyclopropanecarboxamide] | 3.1 nM
CN1CC[C@@H]1COc1cnn(C)c1-c1ccn2nc(NC(=O)[C@H]3C[C@H]3c3ccccc3)cc2c1 (single isomer, unassigned) [Example 159, (1*S,2*R)—N-(5-(1-methyl-4-(((R)-1-methylazetidin-2-yl)methoxy)-1H-pyrazol-5-yl)pyrazolo[1,5-a]pyridin-2-yl)-2-phenylcyclopropane-1-carboxamide] | 24.2 nM
C[C@H]1CNC[C@H]1OCc1cnn(C)c1-c1ccn2nc(NC(=O)C3CC3)cc2c1 (single isomer, unassigned) [Example 194, (3*S,4*S)—N-[5-[2-methyl-4-[(4-methylpyrrolidin-3-yl)oxymethyl]pyrazol-3-yl]pyrazolo[1,5-a]pyridin-2-yl]cyclopropanecarboxamide] | 4.7 nM
C[C@@H]1CNC[C@@H]1OCc1cnn(C)c1-c1ccn2nc(NC(=O)C3CC3)cc2c1 (single isomer, unassigned) [Example 196, (3*R, 4*R)—N-[5-[2-methyl-4-[(4-methylpyrrolidin-3-yl)oxymethyl]pyrazol-3-yl]pyrazolo[1,5-a]pyridin-2-yl]cyclopropanecarboxamide] | 24.7 nM
C[C@@H]1CN(C)C[C@@H]1OCc1cnn(C)c1-c1ccn2nc(NC(=O)C3CC3)cc2c1 (single isomer, unassigned) [Example 197, (3*R, 4*R)—N-[5-[4-[(1,4-dimethylpyrrolidin-3-yl)oxymethyl]-2-methyl-pyrazol-3-yl]pyrazolo[1,5-a]pyridin-2-yl]cyclopropanecarboxamide] | 28.1 nM
COC1CNC[C@@H]1Oc1noc(C)c1-c1ccn2nc(NC(=O)C3CC3)cc2c1 (single isomer, unassigned) [Example 202, N-(5-(3-(((3*S,4*R)-4-methoxypyrrolidin-3-yl)oxy)-5-methylisoxazol-4-yl)pyrazolo[1,5-a]pyridin-2-yl)cyclopropanecarboxamide] | 12.3 nM
Cc1onc(O[C@H]2CNCC2F)c1-c1ccn2nc(NC(=O)C3CC3)cc2c1 (single isomer, unassigned) [Example 210, N-(5-(3-(((3*S,4*R)-4-fluoropyrrolidin-3-yl)oxy)-5-methylisoxazol-4-yl)pyrazolo[1,5-a]pyridin-2-yl)cyclopropanecarboxamide] | 7.5 nM
Cc1onc(O[C@@H]2CCNC[C@@H]2F)c1-c1ccn2nc(NC(=O)C3CC3)cc2c1 (single isomer, unassigned) [Example 215, N-(5-(3-(((3*S,4*R)-3-fluoropiperidin-4-yl)oxy)-5-methylisoxazol-4-yl)pyrazolo[1,5-a]pyridin-2-yl)cyclopropanecarboxamide] | 27.5 nM
Cc1onc(O[C@@H]2CCNC[C@H]2F)c1-c1ccn2nc(NC(=O)C3CC3)cc2c1 (single isomer, unassigned) [Example 216, N-(5-(3-(((3*R,4*S)-3-fluoropiperidin-4-yl)oxy)-5-methylisoxazol-4-yl)pyrazolo[1,5-a]pyridin-2-yl)cyclopropanecarboxamide] | 29.6 nM
Cc1onc(O[C@@H]2CCNC3(CCC3)C2)c1-c1ccn2nc(NC(=O)C3CC3)cc2c1 (single isomer, unassigned) [Example 218, (*R)—N-[5-[3-(9-azaspiro[3.5]nonan-6-yloxy)-5-methyl-isoxazol-4-yl]pyrazolo[1,5-a]pyridin-2-yl]cyclopropanecarboxamide] | 49.5 nM

Now from value to molecule:

IC50 | Compound
9.2 nM | Cc1cc(Nc2cc3cc(-c4c(OC[C@@H]5CCN(C)C5=O)cnn4C)ccn3n2)nc(C)n1 (single isomer, unassigned) [Example 34, (*S)-3-[[5-[2-[(2,6-dimethylpyrimidin-4-yl)amino]pyrazolo[1,5-a]pyridin-5-yl]-1-methyl-pyrazol-4-yl]oxymethyl]-1-methyl-pyrrolidin-2-one]
444 nM | CO[C@@H]1CNC[C@@H]1Oc1cnn(C)c1-c1ccn2nc(NC(=O)C3CC3)cc2c1 (single isomer, unassigned) [Example 40, N-(5-(4-(((3*S,4*R)-4-methoxypyrrolidin-3-yl)oxy)-1-methyl-1H-pyrazol-5-yl)pyrazolo[1,5-a]pyridin-2-yl)cyclopropanecarboxamide]
14.6 nM | C[C@@H]1[C@@H](COc2cnn(C)c2-c2ccn3nc(NC(=O)C4CC4)cc3c2)CN1C (single isomer, unassigned) [Example 41, trans-N-(5-(4-(((2*R,3*S)-1,2-dimethylazetidin-3-yl)methoxy)-1-methyl-1H-pyrazol-5-yl)pyrazolo[1,5-a]pyridin-2-yl)cyclopropanecarboxamide]
57.8 nM | CN1CC2(CCOCC2)[C@@H]1COc1cnn(C)c1-c1ccn2nc(NC(=O)C3CC3)cc2c1 (single isomer, unassigned) [Example 58, (*R)—N-(5-(1-methyl-4-((2-methyl-7-oxa-2-azaspiro[3.5]nonan-1-yl)methoxy)-1H-pyrazol-5-yl)pyrazolo[1,5-a]pyridin-2-yl)cyclopropanecarboxamide]
11.1 nM | CN1CC[C@@H]1COc1cnn(C)c1-c1ccn2nc(NC(=O)[C@@H]3C[C@H]3c3ccccc3)cc2c1 (single isomer, unassigned) [Example 157, (1*R,2*R)—N-[5-[2-methyl-4-[((R)1-methylazetidin-2-yl)methoxy]pyrazol-3-yl]pyrazolo[1,5-a]pyridin-2-yl]-2-phenyl-cyclopropanecarboxamide]
12 nM | Cn1ncc(CO[C@@H]2CNCC2(F)F)c1-c1ccn2nc(NC(=O)C3CC3)cc2c1 (single isomer, unassigned) [Example 189, (*R)—N-[5-[4-[(4,4-difluoropyrrolidin-3-yl)oxymethyl]-2-methyl-pyrazol-3-yl]pyrazolo[1,5-a]pyridin-2-yl]cyclopropanecarboxamide]
3.5 nM | C[C@H]1CN(C)C[C@H]1OCc1cnn(C)c1-c1ccn2nc(NC(=O)C3CC3)cc2c1 (single isomer, unassigned) [Example 195, (3*S,4*S)—N-[5-[4-[(1,4-dimethylpyrrolidin-3-yl)oxymethyl]-2-methyl-pyrazol-3-yl]pyrazolo[1,5-a]pyridin-2-yl]cyclopropanecarboxamide]
14.9 nM | CO[C@@]1(COc2noc(C)c2-c2ccn3nc(NC(=O)C4CC4)cc3c2)CCNC1 (single isomer, unassigned) [Example 209, (*S)—N-(5-(3-((3-methoxypyrrolidin-3-yl)methoxy)-5-methylisoxazol-4-yl)pyrazolo[1,5-a]pyridin-2-yl)cyclopropanecarboxamide]
24.1 nM | Cc1onc(O[C@H]2C[C@@H]3C[C@H]2CN3)c1-c1ccn2nc(NC(=O)C3CC3)cc2c1 (single isomer, unassigned) [Example 217, N-(5-(3-(((1*S,4*S,5*R)-2-azabicyclo[2.2.1]heptan-5-yl)oxy)-5-methylisoxazol-4-yl)pyrazolo[1,5-a]pyridin-2-yl)cyclopropanecarboxamide]
44.3 nM | Cc1onc(O[C@@H]2CCN(C)C3(CCC3)C2)c1-c1ccn2nc(NC(=O)C3CC3)cc2c1 (single isomer, unassigned) [Example 219, (*R)—N-[5-[5-methyl-3-[(9-methyl-9-azaspiro[3.5]nonan-6-yl)oxy]isoxazol-4-yl]pyrazolo[1,5-a]pyridin-2-yl]cyclopropanecarboxamide]
16.4 nM | Cc1onc(O[C@H]2CN[C@H]3CCCO[C@H]32)c1-c1ccn2nc(NC(=O)C3CC3)cc2c1 (single isomer, unassigned) [Example 228, N-(5-(5-methyl-3-(((3*S,3a*R,7a*S)-octahydropyrano[3,2-b]pyrrol-3-yl)oxy)isoxazol-4-yl)pyrazolo[1,5-a]pyridin-2-yl)cyclopropanecarboxamide]
34.8 nM | C[C@@H]1CNC[C@@H]1Oc1cnn(C)c1-c1ccn2nc(NC(=O)C3CC3)cc2c1 (single isomer, unassigned) [Example 238, (3*R, 4*R)—N-[5-[2-methyl-4-(4-methylpyrrolidin-3-yl)oxy-pyrazol-3-yl]pyrazolo[1,5-a]pyridin-2-yl]cyclopropanecarboxamide]
